The values below come from US5866567A, “Diazepinones, their production and use” (Takeda Chemical Industries, Ltd., priority 1995, dated 1999).

As usually defined, the IC50 is the concentration that gives 50% inhibition.

For the experiment, the target named is T1, Human GnRH receptor (Homo sapiens, UniProt P30968).
T1 construct: expressed in transfected cells; host or cells: CHO (Chinese hamster ovary) cells, membrane fraction
T1 sequence (P30968 1-328): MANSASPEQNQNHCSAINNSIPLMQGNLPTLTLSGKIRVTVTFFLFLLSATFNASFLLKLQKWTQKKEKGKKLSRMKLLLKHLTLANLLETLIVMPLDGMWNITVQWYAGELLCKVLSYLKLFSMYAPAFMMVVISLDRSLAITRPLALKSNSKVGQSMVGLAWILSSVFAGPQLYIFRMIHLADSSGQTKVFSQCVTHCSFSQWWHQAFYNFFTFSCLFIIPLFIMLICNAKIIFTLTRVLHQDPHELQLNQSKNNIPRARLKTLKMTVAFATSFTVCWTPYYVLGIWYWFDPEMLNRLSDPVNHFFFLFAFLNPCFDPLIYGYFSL
The experiment can be described thus: Human GnRH receptor binding inhibition assay (125I-leuprolerin, membrane fraction of CHO cells expressing human GnRH receptors). As to conditions: CHO cell membrane fraction with human GnRH receptors, 25° C., 60 minutes, concentration series, Hill plot, read-out: Binding inhibitory activity (IC50). The method, then: Human GnRH receptor binding inhibition assay
(A) Preparation of ^125 I-leuprolerin
Ten (10) μl of 3×10^-4 M aqueous leuprolerin solution and 10 μl of 0.01 mg/ml lactoperoxidase solution were taken in a tube, and 10 μl of Na^125 I solution (37 MBq) was added. After stirring, 10 μl of 0.001% H2 O2 was added and the reaction was conducted at room temperature for 20 minutes. The reaction was stopped by adding 700 μl of 0.05% TFA solution, and the reaction mixture was purified by reversed HPLC. The HPLC parameters are shown below. The retention time of ^125 I-leuprolerin was 26-27 minutes.
Column: TSKgel ODS-80™ CTR (4.6 mm×10 cm)
Eluent: Solvent A (0.05%TFA) Solvent B (40%CH3 CN-0.05%TFA)
Min. 0 (100% Solvent A)--Min. 3 (100% Solvent A)--Min. 7 (50% Solvent A+50% Solvent B)--Min. 40 (100% Solvent B) Elution temperature: room temperature Elution flow rate: 1 ml/min.
CHO cells (10^9 cells) with human GnRH receptors expressed were floated on phosphate-buffered saline containing EDTA (PBS-EDTA) and centrifuged at 100×g for 5 minutes. To the pellet obtained was added 10 ml of a cell homogenate buffer (10 mM NaHCO3, 5 mM EDTA, pH 7.5) and the mixture was homogenized using a Polytron homogenizer. The homogenate was centrifuged at 400×g for 15 minutes and the supernatant was taken in an ultracentrifuge tube and recentrifuged at 100,000×g for 1 hour. The membrane fraction thus obtained as a pellet was suspended in 2 ml of assay buffer and centrifuged at 100,000×g for 1 hour. The membrane fraction recovered was resuspended in 20 ml of assay buffer and the suspension was portioned, stored at -80° C., and thawed when needed.
(C) Determination of the ^125 I-leuprolerin binding inhibition rate
The membrane fraction prepared in Step (B) was diluted with assay buffer to 200 μg/ml and the dilution was portioned into tubes, 188 μl per tube. Then, 2 μl of 2 mM solution of the test compound in 60% DMSO and 10 μl of 38 nM ^125 I-leuprolerin solution in the same solvent were simultaneously added to the tubes. To determine the maximum binding, a test mixture of 2 μl of 60% DMSO and 10 μl of 38 nM ^125 I-leuprolerin solution in the same solvent was prepared. For the determination of nonspecific binding, a test mixture of 2 μl of 100 μM leuprolerin solution in 60% DMSO and 10 μl of 38 nM solution of ^125 I-leuprolerin in the same solvent was also prepared. The mixtures were respectively allowed to react at 25° C. for 60 minutes and the reaction product in each tube was filtered through a poly(ethylene imine)-treated Whatman glass filter (GF-F) under suction. The radioactivity of ^125 I-leuprolerin remaining on the filter was determined using a γ-counter.
Using the measured values, the following equation was calculated to find the binding inhibition rate for each test compound.
Binding inhibition (%)=(TB-SB)/(TB-NSB)×100
[SB: radioactivity with the compound added
TB: maximum bound radioactivity
NBS: nonspecifically bound radioactivity]
Using a concentration series of each test compound, the concentration of the compound which inhibited the binding by 50% (IC50) was calculated by Hill plot.
For `O=C(Nc1ccc(CN2C(=O)[C@H]3CCC[C@H]3N(C(=O)CN3C(=O)c4ccccc4C3=O)c3ccccc32)cc1)OCc1ccccc1` (relative stereo) [Example 1, (3aR*,10aS*)-9-[4-(Benzyloxycarbonylamino)benzyl]-4-(phthalimidoacetyl)-2,3,3a,4,9,10a-hexahydrobenzo[b]cyclopenta[e][1,4]diazepin-10(1H)-one], the IC50 worked out at 100 nM. As to `O=C(Nc1ccc(CN2C(=O)[C@H]3CCC[C@H]3N(C(=O)CN3C(=O)C4=C(CCCC4)C3=O)c3ccccc32)cc1)OCc1ccccc1` (relative stereo) [Example 2, (3aR*,10aS*)-9-[4-(Benzyloxycarbonylamino)benzyl]-4-(2H-1,3-dioxo-1,3,4,5,6,7-hexahydroisoindole-2-acetyl)-2,3,3a,4,9,10a-hexahydrobenzo[b]cyclopenta[e][1,4]diazepin-10(1H)-one], the IC50 came to 70 nM.

Turning to `CCC(=O)Nc1ccc(CN2C(=O)[C@H]3CCC[C@H]3N(C(=O)CN3C(=O)c4ccccc4C3=O)c3ccccc32)cc1` (relative stereo) [Example 6, (3aR*,10aS*)-4-(Phthalimidoacetyl)-9-(4-propionamidobenzyl)-2,3,3a,4,9,10a-hexahydrobenzo[b]cyclopenta[e][1,4]diazepin-10(1H)-one], the IC50 turned out to be 800 nM. For the compound `O=C(Nc1ccc(CN2C(=O)[C@H]3CCC[C@H]3N(C(=O)CN3C(=O)c4ccccc4C3=O)c3ccccc32)cc1)c1ccccc1` (relative stereo) [Example 7, (3aR*,10aS*)-9-(4-Benzamidobenzyl)-4-(phthalimidoacetyl)-2,3,3a,4,9,10a-hexahydrobenzo[b]cyclopenta[e]-[1,4]diazepin-10(1H)-one], the IC50 turned out to be 200 nM. In the case of `O=C(Nc1ccc(CN2C(=O)[C@H]3CCC[C@H]3N(C(=O)CN3C(=O)c4ccccc4C3=O)c3ccccc32)cc1)c1ccccc1F` (relative stereo) [Example 8, (3aR*,10aS*)-9-[4-(2-Fluorobenzamido)benzyl]-4-(phthalimidoacetyl)-2,3,3a,4,9,10a-hexahydrobenzo[b]cyclopenta[e][1,4]diazepin-10(1H)-one], the IC50 was found to be 300 nM.

Consider `O=C(Nc1ccc(CN2C(=O)[C@H]3CCC[C@H]3N(C(=O)CN3C(=O)c4ccccc4C3=O)c3ccccc32)cc1)c1cccc(F)c1` (relative stereo) [Example 9, (3aR*,10aS*)-9-[4-(3-Fluorobenzamido)benzyl]-4-(phthalimidoacetyl)-2,3,3a,4,9,10a-hexahydrobenzo[b]cyclopenta[e][1,4]diazepin-10(1H)-one], for which the IC50 was determined as 200 nM. With `O=C(Nc1ccc(CN2C(=O)[C@H]3CCC[C@H]3N(C(=O)CN3C(=O)c4ccccc4C3=O)c3ccccc32)cc1)c1ccc(F)cc1` (relative stereo) [Example 10, (3aR*,10aS*)-9-[4-(4-Fluorobenzamido)benzyl]-4-(phthalimidoacetyl)-2,3,3a,4,9,10a-hexahydrobenzo[b]cyclopenta[e][1,4]diazepin-10(1H)-one], the IC50 worked out at 200 nM. The result for `O=C(Nc1ccc(CN2C(=O)[C@H]3CCC[C@H]3N(C(=O)CN3C(=O)c4ccccc4C3=O)c3ccccc32)cc1)c1ccc(Cl)cc1` (relative stereo) [Example 11, (3aR*,10aS*)-9-[4-(4-Chlorobenzamido)benzyl]-4-(phthalimidoacetyl)-2,3,3a,4,9,10a-hexahydrobenzo[b]cyclopenta[e][1,4]diazepin-10(1H)-one] reads 200 nM.

Regarding `O=C(Nc1ccc(CN2C(=O)[C@H]3CCC[C@H]3N(C(=O)CN3C(=O)c4ccccc4C3=O)c3ccccc32)cc1)c1ccc(Br)cc1` (relative stereo) [Example 12, (3aR*,10aS*)-9-[4-(4-Bromobenzamido)benzyl]-4-(phthalimidoacetyl)-2,3,3a,4,9,10a-hexahydrobenzo[b]cyclopenta[e][1,4]diazepin-10(1H)-one], the IC50 turned out to be 300 nM. On to `COc1cccc(C(=O)Nc2ccc(CN3C(=O)[C@H]4CCC[C@H]4N(C(=O)CN4C(=O)c5ccccc5C4=O)c4ccccc43)cc2)c1` (relative stereo) [Example 14, (3aR*,10aS*)-9-[4-(3-Methoxybenzamido)benzyl]-4-(phthalimidoacetyl)-2,3,3a,4,9,10a-hexahydrobenzo[b]cyclopenta[e][1,4]diazepin-10(1H)-one], for which the IC50 turned out to be 200 nM. Regarding `COc1ccc(C(=O)Nc2ccc(CN3C(=O)[C@H]4CCC[C@H]4N(C(=O)CN4C(=O)c5ccccc5C4=O)c4ccccc43)cc2)cc1` (relative stereo) [Example 15, (3aR*,10aS*)-9-[4-(4-Methoxybenzamido)benzyl]-4-(phthalimidoacetyl)-2,3,3a,4,9,10a-hexahydrobenzo[b]cyclopenta[e][1,4]diazepin-10(1H)-one], the IC50 amounted to 200 nM. Under `O=C(CCc1ccccc1)Nc1ccc(CN2C(=O)[C@H]3CCC[C@H]3N(C(=O)CN3C(=O)c4ccccc4C3=O)c3ccccc32)cc1` (relative stereo) [Example 17, (3aR*,10aS*)-9-[4-(3-Phenylpropionamido)benzyl]-4-(phthalimidoacetyl)-2,3,3a,4,9,10a-hexahydrobenzo[b]cyclopenta[e][1,4]diazepin-10(1H)-one] stands 500 nM; under `O=C(COc1ccccc1)Nc1ccc(CN2C(=O)[C@H]3CCC[C@H]3N(C(=O)CN3C(=O)c4ccccc4C3=O)c3ccccc32)cc1` (relative stereo) [Example 18, (3aR*,10aS*)-9-[4-(Phenoxyacetamido)benzyl]-4-(phthalimidoacetyl)-2,3,3a,4,9,10a-hexahydrobenzo[b]cyclopenta[e][1,4]diazepin-10(1H)-one], 600 nM; under `O=C(Nc1ccc(CN2C(=O)[C@H]3CCC[C@H]3N(C(=O)CN3C(=O)c4ccccc4C3=O)c3ccccc32)cc1)c1ccc2ccccc2c1` (relative stereo) [Example 21, (3aR*,10aS*)-9-[4-(2-Naphthoylamino)benzyl]-4-(phthalimidoacetyl)-2,3,3a,4,9,10a-hexahyrobenzo[b]cyclopenta[e][1,4]diazepin-10(1H)-one], 200 nM. In the case of `O=C(NCc1ccccc1)Nc1ccc(CN2C(=O)[C@H]3CCC[C@H]3N(C(=O)CN3C(=O)c4ccccc4C3=O)c3ccccc32)cc1` (relative stereo) [Example 25, (3aR*,10aS*)-9-[4-(3-benzylureido)benzyl]-4-(phthalimidoacetyl)-2,3,3a,4,9,10a-hexahydrobenzo[b]cyclopenta[e][1,4]diazepin-10(1H)-one], the IC50 turned out to be 30 nM. As to `O=C(NCc1ccccc1)Nc1ccc(CN2C(=O)[C@H]3CCC[C@H]3N(C(=O)CN3C(=O)C4=C(CCCC4)C3=O)c3ccccc32)cc1` (relative stereo) [Example 26, (3aR*,10aS*)-9-[4-(3-Benzylureido)benzyl]-4-(2H-1,3-dioxo-1,3,4,5,6,7-hexahydroisoindole-2-acetyl)-2,3,3a,4,9,10a-hexahydrobenzo[b]cyclopenta[e][1,4]diazepin-10(1H)-one], the IC50 came out at 40 nM. With `C[C@@H](NC(=O)Nc1ccc(CN2C(=O)[C@H]3CCC[C@H]3N(C(=O)CN3C(=O)c4ccccc4C3=O)c3ccccc32)cc1)c1ccccc1` (relative stereo) [Example 27, (3aR*,10aS*)-9-[4-[3-((R)-1-Phenylethyl)ureido]-benzyl]-4-(phthalimidoacetyl)-2,3,3a,4,9,10a-hexahydrobenzo[b]cyclopenta[e][1,4]diazepin-10(1H)-one], the IC50 was determined as 20 nM.
